# Measured values from patent publication US20210393540A1, “NANOPARTICLE-ENCAPSULATED CANNABINOIDS AND METHODS FOR MAKING AND USING SAME” (NuRevelation, LLC, priority 2020, published 2021).
# Assay: Stability of CBD after encapsulation into nanoparticles, by NMR spectra
# Format: physicochemical
# Settings: NMR spectrum of CBD after encapsulation into nanoparticles (bottom) relative to non-encapsulated CBD sample (top), FIG. 3
# Description: In some aspects, the cannabinoid in the dispersion can have a purity of at least 90%. In a further aspect, the purity of the cannabinoid in the dispersion ranges from 90-100%. In a still further aspect, the purity of the cannabinoid in the dispersion ranges from 92-97%. In general, the inventors have discovered that the encapsulation process described herein can be improved with the use of a pure cannabinoid starting material (e.g., from 92-97% pure). Similarly, the nanoparticle encapsulated cannabinoid products can advantageously maintain the purity of the cannabinoid over extended periods of time. In some aspects, the purity of the cannabinoid starting material can be maintained once encapsulated for a period of twelve months or longer, e.g., 18 months or longer, or even 24 months or longer. The stable shelf life of the cannabinoid nanoparticles is an advantage over many existing methods for delivering cannabinoid products. In some aspects, the stability of the cannabinoid can be measured using NMR, e.g., by comparing a pre-encapsulated cannabinoid to a cannabinoid extracted from a nanoparticle prepared by a disclosed method.
smiles,measurement,value
"C=C(C)[C@@H]1CCC(C)=C[C@H]1c1c(O)cc(CCCCC)cc1O [CBD, cannabidiol]",stability of CBD after encapsulation,remains intact
